Results taken from the NIST ThermoML archive (doi:10.1016/j.jct.2017.03.027).
Numbers after ± are expanded uncertainties.

Tests used:
[1] = molar heat capacity at constant pressure; xn = mol fraction of the nth substance listed; conditions: 100 kPa, Liquid, Large sample (1 g) DSC, x2 = 0
[2] = xn = mol fraction of the nth substance listed; conditions: 100 kPa, Liquid, Vibrating tube method, x2 = 0
[3] = molar heat capacity at constant pressure; conditions: 100 kPa, Liquid, Large sample (1 g) DSC
[4] = 100 kPa, Liquid, Vibrating tube method

| SMILES | molar heat capacity at constant pressure ([1]; 298.6 K) [J/K/mol] | molar heat capacity at constant pressure ([1]; 308.5 K) [J/K/mol] | molar heat capacity at constant pressure ([1]; 318.5 K) [J/K/mol] | molar heat capacity at constant pressure ([1]; 328.4 K) [J/K/mol] | mass density ([2]; 298.15 K) [kg/m3] | mass density ([2]; 308.15 K) [kg/m3] | mass density ([2]; 318.15 K) [kg/m3] | mass density ([2]; 328.15 K) [kg/m3] | molar heat capacity at constant pressure ([3]; 298.6 K) [J/K/mol] | molar heat capacity at constant pressure ([3]; 308.5 K) [J/K/mol] | molar heat capacity at constant pressure ([3]; 318.5 K) [J/K/mol] | molar heat capacity at constant pressure ([3]; 328.4 K) [J/K/mol] | mass density ([4]; 298.15 K) [kg/m3] | mass density ([4]; 308.15 K) [kg/m3] | mass density ([4]; 318.15 K) [kg/m3] | mass density ([4]; 328.15 K) [kg/m3] |
| --- | --- | --- | --- | --- | --- | --- | --- | --- | --- | --- | --- | --- | --- | --- | --- | --- |
| CCO [ethanol] + Cc1ccc(C(C)C)cc1 | 112 ± 1.8 | 116.4 ± 1.9 | 121 ± 2 | 125.6 ± 2 | 785.11 ± 0.71 | 776.44 ± 0.71 | 767.62 ± 0.71 | 758.6 ± 0.71 | – | – | – | – | – | – | – | – |
| CCO [ethanol] | – | – | – | – | – | – | – | – | 112 ± 1.8 | 116.4 ± 1.9 | 121 ± 2 | 125.6 ± 2 | 785.11 ± 0.71 | 776.44 ± 0.71 | 767.62 ± 0.71 | 758.6 ± 0.71 |
| Cc1ccc(C(C)C)cc1 [1-(1-methylethyl)-4-methylbenzene] | – | – | – | – | – | – | – | – | 240.3 ± 3.9 | 244.7 ± 4 | 249.4 ± 4.1 | 254.4 ± 4.1 | 852.93 ± 0.71 | 844.89 ± 0.71 | 836.81 ± 0.71 | 828.69 ± 0.71 |
